EC50 and Emax data for 24 compounds are collected here from patent publication US8124617B2, “Imidazopyridine compounds” (Takeda San Diego, Inc., priority 2005, dated 2012).

The assay addresses T1, glucokinase (residues 12-465 of the human enzyme) (Homo sapiens, UniProt P35557).
T1 construct: FLAG (vector pFLAG-CTC) (C); made in house; host or cells: E. coli DH10b-T1r (pFLAG-CTC)
T1 sequence (P35557 12-465): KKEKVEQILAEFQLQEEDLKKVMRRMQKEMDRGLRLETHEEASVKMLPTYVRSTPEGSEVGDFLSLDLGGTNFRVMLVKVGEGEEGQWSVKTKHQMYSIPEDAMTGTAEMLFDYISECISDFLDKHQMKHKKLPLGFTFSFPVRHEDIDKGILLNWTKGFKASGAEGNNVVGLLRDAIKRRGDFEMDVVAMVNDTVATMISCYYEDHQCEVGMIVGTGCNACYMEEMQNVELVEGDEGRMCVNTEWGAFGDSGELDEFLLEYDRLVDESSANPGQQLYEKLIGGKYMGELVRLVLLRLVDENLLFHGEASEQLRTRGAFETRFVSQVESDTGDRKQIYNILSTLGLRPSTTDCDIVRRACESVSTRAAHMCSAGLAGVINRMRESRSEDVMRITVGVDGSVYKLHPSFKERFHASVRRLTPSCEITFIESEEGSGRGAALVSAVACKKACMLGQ
The assay is described as follows: Measurement of GK activation value (ATP/glucose, luciferase luminescence). In kind it is biochemical. As to conditions: values given as ranges; for EC50: Kact = concentration that displays 50% of the maximal increase in GK activity, room temperature, 60 min, read-out: pKact; for Emax: calculated maximal gain in GK enzyme activity at a saturating concentration of the compound, read-out: % ACTmaxc. From the text:
Purified glucokinase may be obtained as follows. DNA encoding residues 12-465 of the full-length sequence of the human enzyme may be amplified by PCR and cloned into the HindIII and EcoRI sites of pFLAG-CTC (Sigma). SEQ ID No. 5 corresponds to residues 12-465 of glucokinase.
The expression of recombinant glucokinase protein may be carried out by transformation and growth of DH10b-T1r E. coli cells incorporating the (pFLAG-CTC) plasmid in LB media. Protein expression can be induced in this system by the addition of IPTG to the culture medium.
Recombinant protein may be isolated from cellular extracts by passage over Sepharose Q Fast Flow resin (Pharmacia). This partially purified GK extract may then be further purified by a second passage over Poros HQ10 (Applied Biosystems). The purity of GK may be determined on denaturing SDS-PAGE gel. Purified GK may then be concentrated to a final concentration of 20.0 mg/ml. After flash freezing in liquid nitrogen, the proteins can be stored at −78° C. in a buffer containing 25 mM TRIS-HCl pH 7.6, 50 mM NaCl, and 0.5 mM TCEP.
The assay reaction may be initiated as follows: 4 μl of substrate mixture (12.5 μM ATP and 12.5 mM Glucose) was added to each well of the plate, followed by the addition of 2 μl of activator (2 fold serial dilutions for 11 data points for each activator) containing 10% DMSO. 4 μL of 1.25 nM GK solution may be added to initiate the reaction. The reaction mixture may then be incubated at room temperature for 60 min, and quenched and developed by addition of 10 μL of luciferase reagent. Luminescence intensities of the resulting reaction mixtures may be measured after a 10 min incubation at room temperature. The luminescence intensity may be measured by using the Analyst HT from LJL Biosystems.
pKact and % ACTmax values may be calculated by non-linear curve fitting of the compound concentrations and luminescence intensities to a standard inhibition/activation equation.

Where only a bound is given, the exact number is not on record here.

For `Fc1ccccc1COc1cc(Oc2ncccn2)cc(-c2nc3cc(Br)cnc3[nH]2)c1` [Example 245, 6-bromo-2-(3-(2-fluorobenzyloxy)-5-(pyrimidin-2-yloxy)phenyl)-3H-imidazo[4,5-b]pyridine], the EC50 was in the range of 398 to 1000 nM and the Emax was over 70%.

Turning to `Cn1ccnc1COc1cc(OCc2ccccc2F)cc(-c2nc3cc(Br)cnc3[nH]2)c1` [Example 167, 6-bromo-2-(3-(2-fluorobenzyloxy)-5-((1-methyl-1H-imidazol-2-yl)methoxy)phenyl)-3H-imidazo[4,5-b]pyridine], the EC50 was under 100 nM and the Emax was over 70%.

As for `CC(C)Oc1ccc(/C=C/c2ccccc2)cc1-c1nc2cccnc2[nH]1` [Example 196, (E)-2-(2-isopropoxy-5-styrylphenyl)-3H-imidazo[4,5-b]pyridine], the EC50 was 398 to 1000 nM and the Emax is over 70%.

With `COC[C@H](C)Oc1cc(OCc2ccccc2F)cc(-c2nc3cc(CCCO)cnc3[nH]2)c1` [Example 177, (S)-3-(2-(3-(2-fluorobenzyloxy)-5-(1-methoxypropan-2-yloxy)phenyl)-3H-imidazo[4,5-b]pyridin-6-yl)propan-1-ol], the EC50 fell in the range of 398 to 1000 nM and the Emax was 20 to 29.9%.

As to `Cn1ccnc1COc1cc(OCCc2ccsc2)cc(-c2nc3cc(Br)cnc3[nH]2)c1` [Example 164, 6-bromo-2-(3-((1-methyl-1H-imidazol-2-yl)methoxy)-5-(2-(thiophen-3-yl)ethoxy)phenyl)-3H-imidazo[4,5-b]pyridine], the EC50 fell in the range of 126 to 316 nM and the Emax was 50 to 69.9%.

`Brc1cnc2[nH]c(-c3ccccc3Oc3cccnc3)nc2c1` [Example 244, 6-bromo-2-(2-(pyridin-3-yloxy)phenyl)-3H-imidazo[4,5-b]pyridine]: the EC50 lay in the range of 398 to 1000 nM and the Emax was 20 to 29.9%.

`COC[C@H](C)Oc1cc(Oc2ccc(S(C)(=O)=O)cc2)cc(-c2nc3cccnc3[nH]2)c1` [Example 181, (S)-2-(3-(1-methoxypropan-2-yloxy)-5-(4-(methylsulfonyl)phenoxy)phenyl)-3H-imidazo[4,5-b]pyridine]: the EC50 fell in the range of 398 to 1000 nM and the Emax is over 70%.

Take `Cn1ccnc1CNc1cc(NS(=O)(=O)c2ccccc2)cc(-c2nc3cc(Br)cnc3[nH]2)c1` [Example 213, N-(3-(6-bromo-3H-imidazo[4,5-b]pyridin-2-yl)-5-((1-methyl-1H-imidazol-2-yl)methylamino)phenyl)benzenesulfonamide]: the EC50 lay in the range of 126 to 316 nM and the Emax was 30 to 49.9%.

As to `Cn1ccnc1COc1cc(OCc2ccccc2)cc(-c2nc3cc(Br)cnc3[nH]2)c1` [Example 163, 2-(3-(benzyloxy)-5-((1-methyl-1H-imidazol-2-yl)methoxy)phenyl)-6-bromo-3H-imidazo[4,5-b]pyridine], the EC50 was under 100 nM and the Emax is 50 to 69.9%.

As to `CC(C)Oc1cc(OCc2ccccc2)cc(-c2nc3cccnc3[nH]2)c1` [Example 158, 2-(3-(benzyloxy)-5-isopropoxyphenyl)-3H-imidazo[4,5-b]pyridine], the EC50 lay in the range of 126 to 316 nM and the Emax is 20 to 29.9%.

Regarding `CC(C)Oc1cc(OCCc2ccccc2)cc(-c2nc3cccnc3[nH]2)c1` [Example 161, 2-(3-isopropoxy-5-phenethoxyphenyl)-3H-imidazo[4,5-b]pyridine], the EC50 was under 100 nM and the Emax is 30 to 49.9%.

For the compound `Cn1ccnc1COc1cc(OCc2ccccc2F)cc(-c2nc3cccnc3[nH]2)c1` [Example 165, 2-(3-(2-fluorobenzyloxy)-5-((1-methyl-1H-imidazol-2yl)methoxy)phenyl)-3H-imidazo[4,5-b]pyridine], the EC50 was under 100 nM and the Emax was over 70%.

On to `Cn1ccnc1COc1cc(OCc2ccccc2F)cc(-c2nc3cc(Cl)cnc3[nH]2)c1` [Example 166, 6-chloro-2-(3-(2-fluorobenzyloxy)-5-((1-methyl-1H-imidazol-2-yl)methoxy)phenyl)-3H-imidazo[4,5-b]pyridine], for which the EC50 was under 100 nM and the Emax was over 70%.

`COC[C@@H](C)Oc1cc(OCc2ccccc2F)cc(-c2nc3cc(Cl)cnc3[nH]2)c1` [Example 173, (R)-6-chloro-2-(3-(2-fluorobenzyloxy)-5-(1-methoxypropan-2-yloxy)phenyl)-3H-imidazo[4,5-b]pyridine]: the EC50 is 126 to 316 nM and the Emax was 50 to 69.9%.

Take `COc1ccc(OCc2ccccc2)cc1-c1nc2cc(Br)cnc2[nH]1` [Example 243, 2-(5-(benzyloxy)-2-methoxyphenyl)-6-bromo-3H-imidazo[4,5-b]pyridine]: the EC50 is 126 to 316 nM and the Emax was 30 to 49.9%.

As for `Cn1ccnc1COc1cc(OCc2ccccc2)cc(-c2nc3cccnc3[nH]2)c1` [Example 162, 2-(3-(benzyloxy)-5-((1-methyl-1H-imidazol-2-yl)methoxy)phenyl)-3H-imidazo[4,5-b]pyridine], the EC50 fell in the range of 126 to 316 nM and the Emax is over 70%.

Turning to `Brc1cnc2[nH]c(-c3ccccc3Oc3ccccc3)nc2c1` [Example 188, 6-bromo-2-(2-phenoxyphenyl)-3H-imidazo[4,5-b]pyridine], the EC50 fell in the range of 398 to 1000 nM and the Emax is 30 to 49.9%.

In the case of `CC(C)Oc1ccc(OCc2ccccc2)cc1-c1nc2cc(-c3cccc(F)c3)cnc2[nH]1` [Example 71, 2-[5-(benzyloxy)-2-isopropoxyphenyl]-6-(3-fluorophenyl)-3H-imidazo[4,5-b]pyridine], the EC50 lay within 398 to 1000 nM and the Emax is 20 to 29.9%.

`Cn1ccnc1COc1cc(OCc2ccccc2F)cc(-c2nc3cc(CCCO)cnc3[nH]2)c1` [Example 168, 3-(2-(3-(2-fluorobenzyloxy)-5-((1-methyl-1H-imidazol-2-yl)methoxy)phenyl)-3H-imidazo[4,5-]pyridin-6-yl)propan-1-ol]: the EC50 lay in the range of 126 to 316 nM and the Emax is over 70%.

Take `COC[C@@H](C)Oc1cc(OCc2ccccc2F)cc(-c2nc3cc(Br)cnc3[nH]2)c1` [Example 174, (R)-6-bromo-2-(3-(2-fluorobenzyloxy)-5-(1-methoxypropan-2-yloxy)phenyl)-3H-imidazo[4,5-b]pyridine]: the EC50 was in the range of 126 to 316 nM and the Emax was 30 to 49.9%.

For `CC(C)Oc1cc(OCCCc2ccccc2)cc(-c2nc3cccnc3[nH]2)c1` [Example 159, 2-(3-isopropoxy-5-(3-phenylpropoxy)phenyl)-3H-imidazo[4,5-b]pyridine], the EC50 fell in the range of 398 to 1000 nM and the Emax was 20 to 29.9%.

`COC[C@@H](C)Oc1cc(OCc2ccccc2F)cc(-c2nc3cccnc3[nH]2)c1` [Example 172, (R)-2-(3-(2-fluorobenzyloxy)-5-(1-methoxypropan-2-yloxy)phenyl)-3H-imidazo[4,5-b]pyridine]: the EC50 lay in the range of 398 to 1000 nM and the Emax was 50 to 69.9%.

On to `COc1ccc(/C=C/c2ccncc2)cc1-c1nc2cccnc2[nH]1` [Example 246, (E)-2-(2-methoxy-5-(2-(pyridin-4-yl)vinyl)phenyl)-3H-imidazo[4,5-b]pyridine], for which the EC50 is 398 to 1000 nM and the Emax was 30 to 49.9%.

As to `Cn1ccnc1CNc1cc(NS(C)(=O)=O)cc(-c2nc3cc(Br)cnc3[nH]2)c1` [Example 214, N-(3-(6-bromo-3H-imidazo[4,5-b]pyridin-2-yl)-5-((1-methyl-1H-imidazol-2-yl)methylamino)phenyl)methanesulfonamide], the EC50 is 398 to 1000 nM and the Emax is 30 to 49.9%.
